Data as given in US10746747B2, “Method for quantitative characterization of substances with regard to their properties of binding to amyloid-β (Aβ) conformers” (FORSCHUNGSZENTRUM JUELICH GMBH, priority 2013, dated 2020).
Like-named read-outs stand apart in the source and are kept apart here. Square brackets hold non-standard residues; d marks the D form. Peptide text beside a SMILES is read from it.

Tests used:
Aβ(1-42) monomers = molecular target: T1, Aβ(1-42) monomers (Homo sapiens, UniProt P05067); assay: SPR single-cycle kinetics on immobilized Aβ(1-42) monomers; details: monomers by density gradient centrifugation, 1423 RU immobilized, heterogeneous binding model, two sites
T1 construct: sensor surfaces containing immobilized Aβ(1-42) monomers, oligomers and fibrils
Experimental: (§1) The results can be obtained by surface plasmon resonance or by biolayer interferometry. In the case of surface plasmon resonance, regeneration steps between individual analyte injections are circumvented by carrying out the interaction studies using the “single-cycle kinetics” measurement method. Thus, advantageously, different analyte concentrations are injected directly one after the other.
(§2) In order to ensure a homogeneous sample preparation, monomers and oligomers were separated by means of size exclusion chromatography (SEC), and fibrils were separated from other forms by means of density gradient centrifugation. The immobilization on streptavidin-loaded SPR sensor surfaces took place by using biotinylated Aβ(1-42), oligomers and fibrils being composed of a 1:10 ratio of biotinylated Aβ(1-42) to non-biotinylated Aβ(1-42).
(§3) The lyophilized samples of N-terminally biotinylated Aβ(1-42) and non-biotinylated Aβ(1-42) were each dissolved separately from one another in 100% hexafluoroisopropanol (HIFP) and incubated overnight at room temperature. The volumes required for a 1:10 ratio were then combined and the HFIP was evaporated off using a concentrator.
(§4) For the preparation of monomeric and oligomeric Aβ(1-42), the previously obtained pellet was taken up in the size exclusion chromatography buffer (50 mM sodium phosphate buffer, 150 mM NaCl, 0.6% Tween 20, pH 7.4) and briefly centrifuged for 30 seconds at 15500 g in order to sediment insoluble material.
(§5) The supernatant after the centrifugation step at the end of the preparation of monomeric and oligomeric Aβ(1-42) was then applied directly to a Superdex 75 10/300 GL (GE Healthcare) column for chromatographic separation. The flow rate during the elution with size exclusion chromatography buffer was 0.8 ml/min. Monomers eluted at ˜14 ml, whereas oligomers eluted at ˜8 ml.
(§6) The density gradient was prepared by subsequently layering over the density gradient solution (iodixanol diluted in 10 mM sodium phosphate buffer pH 7.4) in concentrations of 50% (260 μl), 40% (260 μl), 30% (260 μl), 20% (260 μl), 10% (260 μl) and 5% (100 μl) (v/v). The samples were then pipetted onto the density gradient and centrifugation was carried out for 3 hours at 4° C. and 259000 g. A total of 14 fractions, each of 140 μl, was then removed from the density gradient from top to bottom. Monomers are found in the first fraction, oligomers are found in fractions 5 and 6, and fibrils are found typically in fractions 11-13.
(§7) The monomers are biotinylated C-terminally, unlike the oligomers and fibrils (N-terminally). The response units (Y-axis) were plotted against the time in seconds (X-axis), wherein the black curves represent the double-referenced experimental data and the gray superposed curves represent the fits. […]

Aβ(1-42) oligomers = molecular target: T2, Aβ(1-42) oligomers (Homo sapiens, UniProt P05067); assay: SPR single-cycle kinetics on immobilized Aβ(1-42) oligomers; details: oligomers by density gradient centrifugation, 1356 RU immobilized, heterogeneous binding model, two sites
T2 construct: oligomers and fibrils being composed of a 1:10 ratio of biotinylated Aβ(1-42) to non-biotinylated Aβ(1-42)
Experimental: as §1, §2, §3, §4, §5, §6, §7

Aβ(1-42) fibrils = molecular target: T3, Aβ(1-42) fibrils (Homo sapiens, UniProt P05067); assay: SPR single-cycle kinetics on immobilized Aβ(1-42) fibrils; details: fibrils by density gradient centrifugation, 1324 RU immobilized, binding model with three binding sites
T3 construct: oligomers and fibrils being composed of a 1:10 ratio of biotinylated Aβ(1-42) to non-biotinylated Aβ(1-42)
Experimental: as §1, §2, §3
For the preparation of fibrillar Aβ(1-42), the pellets obtained after the evaporation were dissolved in 10 mM sodium phosphate buffer pH 7.4 and incubated for 24 hours at 25° C. and at 600 rpm.
as §6
The monomers are biotinylated C-terminally, unlike the oligomers and fibrils (N-terminally). The response units (Y-axis) were plotted against the time in seconds (X-axis), wherein the black curves represent the double-referenced experimental data and the gray superposed curves represent the fits. For characterizing the scFv-IC16, therefore, measurements using biotinylated Aβ(1-42) are possible; C-terminally biotinylated Aβ(1-42) was used here. For fitting to monomers, a 1:1 Langmuir binding model was used and oligomers and fibrils were fitted to a heterogeneous binding model which takes account of two different binding sites on the sensor surface. It can clearly be seen that the fits coincide very well with the experimental data. This is direct evidence of the successful immobilization of the various forms and the respectively homogeneous surface.
The index a1 and d1 refer respectively to the association and dissociation rate of the antibody fragment scFv-IC16 on the respective exposed epitope of the conformer. The index a2 and d2, on the other hand, refer respectively to the association and dissociation rate of the antibody fragment scFv-IC16 on discontinuous epitopes of the respective conformer. Analogously, the indices D1 and D2 refer to the dissociation constants on the continuous and discontinuous epitope.
The D-enantiomeric peptide D7 was identified by a mirror image […] selection and analyzed using the method described above with regard to the binding properties, by way of example as a substance to be tested. In a manner differing from the measurement data in FIG. 3, in this case, all the different Aβ(1-42) conformers (monomers, oligomers and fibrils) were prepared by means of density gradient centrifugation and immobilized in various quantities on the sensor surface. In the case of the monomers, 1423 RU were immobilized, in the case of the oligomers 1356 RU, and in the case of the fibrils 1324 RU. […]

[1] = sub-reaction 1, read-out: ka1 association rate
[2] = sub-reaction 1, read-out: kd1 dissociation rate
[3] = sub-reaction 2, read-out: ka2 association rate
[4] = sub-reaction 2, read-out: kd2 dissociation rate

T1 sequence (P05067 672-713 limits assumed): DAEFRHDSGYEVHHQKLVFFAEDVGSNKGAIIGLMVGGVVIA
T2 sequence (P05067 672-713 limits assumed): as above
T3 sequence (P05067 672-713 limits assumed): as above

kon (Aβ(1-42) monomers; [1]): 2420 M⁻¹ s⁻¹
koff (Aβ(1-42) monomers; [2]): 0.000364 s⁻¹
kon (Aβ(1-42) monomers; [3]): 100000 M⁻¹ s⁻¹
koff (Aβ(1-42) monomers; [4]): 0.00928 s⁻¹
kon (Aβ(1-42) oligomers; [1]): 4520 M⁻¹ s⁻¹
koff (Aβ(1-42) oligomers; [2]): 0.000402 s⁻¹
kon (Aβ(1-42) oligomers; [3]): 66200 M⁻¹ s⁻¹
koff (Aβ(1-42) oligomers; [4]): 0.0153 s⁻¹
kon (Aβ(1-42) fibrils; [1]): 18200 M⁻¹ s⁻¹
koff (Aβ(1-42) fibrils; [2]): 0.262 s⁻¹
kon (Aβ(1-42) fibrils; [3]): 1320 M⁻¹ s⁻¹
koff (Aβ(1-42) fibrils; [4]): 0.000193 s⁻¹
kon (Aβ(1-42) fibrils; sub-reaction 3, read-out: ka3 association rate): 32300 M⁻¹ s⁻¹
koff (Aβ(1-42) fibrils; sub-reaction 3, read-out: kd3 dissociation rate): 0.0125 s⁻¹
Structure (SMILES): CSCC[C@@H](NC(=O)[C@@H](Cc1c[nH]cn1)NC(=O)[C@@H](Cc1ccc(O)cc1)NC(=O)[C@H](NC(=O)[C@@H](Cc1ccc(O)cc1)NC(=O)[C@@H](Cc1ccc(O)cc1)NC(=O)[C@@H](CCC(=O)O)NC(=O)[C@@H](Cc1ccccc1)NC(=O)[C@@H](CCCNC(=N)N)NC(=O)[C@H](NC(=O)[C@H](N)Cc1c[nH]cn1)[C@H](C)O)C(C)C)C(=O)N[C@H](CO)C(=O)O [D7, htrfeyyvyhms] (H-[dH][dT][dR][dF][dE][dY][dY][dV][dY][dH][dM][dS]-OH; N-terminus and C-terminus assumed)
